The nature of series [1]: Water solubility in cold water. It is filed as physicochemical. The procedure:
Commercially available derivatives are obtained from Sigma-Aldrich (St. Louis, Mo.). The methods used for the synthesis of methyl- and sulfur-derivatives of uric acid are similar to those described previously (Beaman et al., J. Org. Chem., 27, 986-990 (1962) and Maruyama et al., Nucleosides, Nucleotides, Nucleic Acids, 19, 1193-1203 (2000)) and structures are confirmed by ^13C nuclear magnetic resonance (NMR) and ultra-violet (UV) spectral analyses. Uric acid analogs are assayed by high performance liquid chromatography (HPLC) and found to be of >97% purity.

A short description of series [2]: Pharmacokinetics: plasma and brain levels after intravenous administration. The class given is in vivo, C57BL/6 mice. As to conditions: mice. The procedure: Mice are administered intravenously 10 mg/kg ([…]) of uric acid as a reference compound and equimolar doses of its analogs (sUA4-2,6,8 trithio uric acid, 12.9 mg/kg; mUA2-1,7 dimethyl uric acid, 11.7 mg/kg; sUA2-6,8 dithio uric acid, 11.9 mg/kg). Three month-old male C57BL/6 mice are injected with a compound and are euthanized 15, 30, 60 or 120 min later (1 mouse/time point/compound). Blood and brain tissues are rapidly removed, frozen on dry ice and kept at −80° C. before quantification of uric acid analogs. Plasma and cerebral cortical tissues are extracted in 10 volumes of 0.5 M perchloric acid and 1 mM ethylenediamine tetraacetic acid (EDTA). Levels of uric acid analogs in the extracts are quantified by HPLC methods employing a 25 cm RP C18 column, 25 mM KH2PO4 buffer (pH=4.6) with 1 ml/min flow rate and UV diode array detection.
Mice that are administered mUA2, sUA2 or sUA4 intravenously are euthanized at increasing time points (15, 30, 60 and 120 min) and levels of the compounds in plasma and brain tissue are measured.

For series [3], the system named is cultured hippocampal neurons. Description: Oxygen and glucose deprivation (OGD) of cultured hippocampal neurons. The class given is cell-based, rat. Particulars: compared to neurons in control cultures; FIG. 2. The procedure:
FIG. 2 illustrates that compounds of formula (I) protect cultured hippocampal neurons against ischemia-like conditions in an embodiment of the invention. Neuronal survival is quantified and values are the mean and SEM (n=8-10 cultures). *p<0.05 compared to the vehicle/OGD cultures. Synaptosomes are prepared from the cerebral cortex of 2-3 month-old adult male Sprague-Dawley rats and are cryopreserved using methods described previously (Begley et al., Brain Res. Protoc., 3, 76-82 (1998)). After thawing, cryopreserved synaptosomes are washed twice with Locke's buffer and plated in 24-well plates at a protein concentration of 250 μg per well. After a 30 min period to permit attachment of the synaptosomes to the substrate, synaptomoses are incubated for 1 h with compounds of formula (I) (1-10 μM), and then exposed for 4 h to freshly prepared 50 μM Fe^2+ (FeSO4). After an additional 30 min incubation in the presence of 10 μM dihydrorhodamine 123 (DHR), a probe for ROS which fluoresces when oxidized (Keller et al., J. Neurochem., 69, 273-284 (1997)), the synaptosomes are washed twice with Locke's buffer and levels of fluorescence are quantified using a fluorescence plate reader (488 nm excitation and 510 emission wavelengths). Fluorescence values for wells exposed to experimental treatments are expressed as a percentage of the mean value for untreated control wells. […] Methods for preparation and maintenance of cultures of PC12 cells and primary embryonic rat hippocampal neurons have been described previously (Furukawa et al., J. Neurosci., 17, 8178-8186 (1997) and Chan et al., J. Biol. Chem., 279, 28733-28743 (2004)). Cells are plated into polyethylenimine-coated plastic 96-well culture plates containing Neurobasal medium with B27 supplements. Experiments are performed in 7-8 day-old cultures (hippocampal neurons) or Dulbecco's modified eagle's medium (DMEM) with 10% fetal bovine serum (PC12 cells). […] Cell viability is quantified by counting viable neurons in premarked microscope fields prior to and following experimental treatment and then calculating percent survival.

Series [4] relates to mouse model of focal ischemic stroke. The experiment in a line: Focal cerebral ischemia-reperfusion (middle cerebral artery occlusion) model. It is filed as in vivo, C57BL/6 mice. As to conditions: administered 1 h after ischemia onset. The procedure: FIG. 4 illustrates that a compound of formula (I) improves functional outcome (e.g., ambulation) and reduces brain damage in a mouse model of focal ischemic stroke in an embodiment of the invention. In FIG. 4A neurological function is scored at 24, 48 and 72 hours post-stroke. In FIG. 4B infarct volume is quantified at 72 hours post-stroke. Values are the mean and SEM (n=8-12 mice). *p<0.001 compared to sham. +p<0.01 compared to vehicle.
FIG. 5 illustrates that compounds of formula (I) improve functional outcome and reduces brain damage in a mouse model of focal ischemic stroke in an embodiment of the invention. In FIG. 5A, neurological function is scored at 24, 48 and 72 hours post-stroke. In FIG. 5B, infarct volume is quantified at 72 hours post-stroke. Values are the mean and SEM (n=8-12 mice). *p<0.001 compared to sham. +p<0.01 compared to vehicle.
Three month-old male C57BL/6 mice are maintained on a 12 h light/12 h dark cycle with continuous access to food and water. The method for subjecting the mice to middle cerebral artery occlusion-reperfusion has been described previously (Arumugam et al., Am. J. Physiol. Heart Circ. Physiol., 287, H2555-2560 (2004)). Mice are anesthetized with isofluorane, a midline incision is made in the neck, and the left external carotid and pterygopalatine arteries are isolated and ligated with 5-0 silk thread. The internal carotid artery (ICA) is occluded at the peripheral site of the bifurcation of the internal carotid artery and the pterygopalatine artery with a small clip and the common carotid artery is ligated with 5-0 silk thread. The external carotid artery is cut, and a 6-0 nylon monofilament with a tip that is blunted (0.2-0.22 mm) with a coagulator is inserted into the external carotid artery. After the clip at the ICA is removed, the nylon thread is advanced into the middle cerebral artery until light resistance is felt. The nylon thread and the common carotid artery ligature are removed after 1 h of occlusion to initiate reperfusion. In the sham group, these arteries are visualized but not disturbed. Mice are administered either uric acid analogs of formula (I) or vehicle (dimethylsulfoxide) by infusion into the femoral vein (10 μl infused over a 2 min period) either 30 min prior to or 60 min after the onset of middle cerebral artery (MCA) occlusion. In a separate set of experiments anesthetized animals from all groups (4-6 mice per group) undergo cerebral blood flow (CBF) measurements using a laser Doppler perfusion monitor. All blood flow measurements are conducted with the mouse fixed in a plastic frame with the probe placed in the region of cerebral cortex perfused by the middle cerebral artery. These procedures are approved by the National Institute on Aging Animal Care and Use Committee.
The functional consequences of focal cerebral ischemia-reperfusion injury are evaluated by using a five-point neurological deficit score (0, no deficit; 1, failure to extend right paw; 2, circling to the right; 3, falling to the right; and 4, unable to walk spontaneously) and are assessed in a blinded fashion. At 72 h of reperfusion, the mice are killed with a lethal dose of isofluorane. The brains are immediately removed and placed into PBS (4° C.) for 15 min, and 2-mm coronal sections are cut with a tissue cutter. The brain sections are stained with 2% 2,3,5-triphenyltetrazolium chloride in phosphate buffer at 37° C. for 15 min. The stained sections are photographed, and the digitized images are used for analysis. The borders of the infarct in each brain slice are outlined and the area quantified using a NIH image 6.1 software. To correct for brain swelling, the infarct area is determined by subtracting the area of undamaged tissue in the left hemisphere from that of the intact contralateral hemisphere. Infarct volume is calculated by integration of infarct areas for all slices of each brain.

Another series has as its system skin wound. Description: Punch biopsy wound healing model. The class given is in vivo, C57BL/6 mice. As to conditions: single topical dose at time of wounding; on average; saline control greater than 13 days. The source says: A defined wound is created with a 4 mm Accuderm human punch biopsy kit (Accuderm, Ft Lauderdale, Fla.) in C57BL/6 mice. Specifically, the loose skin on the back of a mouse was brought together and, under anesthetic, a single punch was made through either side to create two wounds through the skin alone—without affecting underlying tissue. Immediately post-wounding, the wounds are either treated topically with normal saline (to serve as the non-treated control group) or with a compound of formula (I). Each day the wounds are digitally photographed and wound areas are determined by computer integration of the photographs. Wound area at the time of wounding (day 0) is arbitrarily set to a relative value of 1 for all wounds; such that subsequent wound areas are converted to relative wound areas by dividing the wound area at day n by the wound area at day zero.

≈ marks a conversion by molar mass, not a printed value.

For orientation: solubility means the concentration that dissolves in the medium under given conditions. Read a high solubility as much dissolved substance.

Take `O=c1[nH]c(=S)c2[nH]c(=S)[nH]c2[nH]1` [sUA2, 6,8 dithio uric acid]: in series [1], the concentration in solution (solubility) was 2000 µg/mL (≈ 9.99 mM). In series [2] (male, C57BL/6, mouse, brain (cerebral cortical tissue) / plasma, early time points (15-30 min), read-out: brain tissue concentration as percentage of plasma concentration), the Kp was approximately 0.1. For the same compound, the “detection in the brain” value in series [2] (equimolar to 10 mg/kg uric acid, 15, 30, 60 and 120 min) is “detected in the brain at all time points examined”. Moreover, the “brain concentration time course versus plasma” value in series [2] (through the 120 min time point) is listed as “remain elevated while plasma concentrations decrease progressively”. The “resistance to OGD induced death” value in series [3] is reported as “significantly more resistant”. Besides, the “functional outcome (neurological deficit score)” value in series [4] (FIG. 5A) is “significantly improve functional outcome”. In series [4] (FIG. 5B), the brain damage result is “decrease brain damage”. The “time to wound closure post wounding” value in the series with skin wound came out at 8 days.

(Values after patent US20100105707A1, “METHOD OF TREATING OR PREVENTING OXIDATIVE STRESS-RELATED DISEASE” (The United States of America, priority 2006, published 2010).)
